Where “and” joins values, the source holds several entries; their conditions need not be identical. Equal entries are not always repeated.
Key:
Format in all cases: physicochemical
[1] = Release of Strecker aldehyde from 3-oxazoline precursor stirred in water at 37° C. (stable isotope dilution, HS-GC-MS / GC-MS); settings: for isomer I (unreacted) (mol %) / isomer II (formed) (mol %): starting from isomer I; for isomer I (formed) (mol %) / isomer II (unreacted) (mol %): starting from isomer II
[2] = PTR-MS release of Strecker aldehydes from spiked chocolate on addition of water or saliva; settings: spiked chocolate 5 g, water (5 mL, pH 4) or saliva (5 mL), 37° C.; FIG. 2, FIG. 3
Experimental: Commercial chocolate (50% of cocoa content) was frozen in liquid nitrogen and ground to a powder using a mixer. An aliquote (50 g) was melted at 35° C. using a water bath and [^2H2]-3-methylbutanal as well as [^13C2]-phenylacetaldehyde were added. After stirring for 5 min, the chocolate was cooled to room temperature and used for all further PTR-MS experiments (“spiked chocolate”).
5.0 g of spiked chocolate was weighed into an iodine flask (200 mL; sealed with a gastight septum) containing a stirring bar. The chocolate was melted at 37° C. for 5 min under stirring. Afterwards, the flask was connected to a PTR-MS instrument via a peek capillary (experiments were done at 37° C.). After defined time (details are given in the respective figures via number of cycles), water (5 mL, pH 4) or saliva (5 mL), respectively, was singly added through the septum via a syringe.
As blank, methylpropanal (2.5 μg), 3-methylbutanal (6.25 μg), phenylacetaldehyde (25 μg), [^2H2]-3-methylbutanal (4.3 μg), and [^13C2]-phenylacetaldehyde (20 μg) were added to sunflower oil (10 g) in an iodine flask (200 mL). Following parameters are used for PTR-MS measurement: inlet temperature 120° C., chamber temperature 80° C., inlet flow 70 mL/min. The mass traces and the dwell time used to monitor Strecker aldehydes are shown below: […]

[3] = Headspace GC-MS release of Strecker aldehydes from spiked chocolate on addition of saliva; settings: headspace injection; for Concentration in “release sample” (after addition of saliva): spiked chocolate 2 g + saliva 2 mL, 5 min at 37° C.; for Concentration in blank sample (prior addition of saliva): spiked chocolate 2 g melted at 37° C.
Experimental: To further confirm the PTR-MS data, all experiments are repeated using a headspace GC-MS system. Commercial chocolate (50% of cocoa content) was frozen in liquid nitrogen and ground to a powder using a mixer. An aliquote (25 g) was melted at 35° C. using a water bath and [^2H6]-methylpropanal, [^2H2]-3-methylbutanal as well as [^13C2]-phenylacetaldehyde were added. After stirring for 5 min, the chocolate was cooled to room temperature and used for all further headspace experiments (“spiked chocolate”). The newly spiked chocolate (2 g) was weighed into a headspace vial (10 mL; sealed with a gastight septum) containing a stirring bar. The chocolate was melted at 37° C. for 5 min under stirring. Then, the first injection (1 mL) was done at 37° C. used as blank sample. Afterwards, the sample was cooled to approx. 16° C. After 30 min, saliva (2 mL) was added through the septum via a syringe, and the sample was again warmed to 37° C. under stirring. After a further 5 min, the second injection (1 mL) was done again at 37° C. (“release sample”). All experiments were done in triplicates. 2-Methylbutanal was quantified using [^2H2]-3-methylbutanal.

[4] = Impact of pH value on release of Strecker aldehyde from 3-oxazoline precursor in buffer solution at 37° C.
Experimental: (§1) 2-(2-Methylpropyl)-5-methyl-3-oxazoline (dissolved in pentane/diethyl ether; 2 mL) was added to ethanol (0.5 mL). The pentane/diethyl ether was carefully evaporated, and finally made up to 5 mL with ethanol. […] A control experiment was performed with 2-(2-methylpropyl)-5-methyl-3-oxazoline and the respective standard without adding the respective buffer solution. For headspace measurements, the samples were directly subjected to HS-GC-MS. For liquid measurements, the samples were cooled in an ice bath and extracted with diethyl ether (3×15 mL; liquid-liquid extraction). The organic phases were combined, dried over anhydrous sodium sulphate, and the solvent was distilled off (20° C., 500 mbar) to about 4 mL. An aliquot (2 μL) was used for the stable isotope dilution assays ((GC-) GC-MS).
as §1, with “2-Methylphenyl-5-methyl-3-oxazoline” for “2-(2-Methylpropyl)-5-methyl-3-oxazoline”, “2-methylphenyl-5-methyl-3-oxazoline” for “2-(2-methylpropyl)-5-methyl-3-oxazoline”

[5] = 5 min, stirred in water at 37° C.
[6] = 15 min, stirred in water at 37° C.
[7] = 30 min, stirred in water at 37° C.
[8] = Control experiment without addition of water
[9] = Control experiment without addition of water, in relation to amount of precursor used
[10] = Control without addition of water

## CC1C=NC(C(C)C)O1 (single isomer, unassigned) [2-(1-methylethyl)-5-methyl-3-oxazoline]
[1]; [5]
  methylpropanal (mol %) generated from precursor: 46.0 mol %
[1]; [6]
  methylpropanal (mol %) generated from precursor: 53.5 mol %
[1]; [7]
  methylpropanal (mol %) generated from precursor: 56.1 mol %
[1]; [8]
  methylpropanal (mol %) generated from precursor: 0.1 mol %

## CCC(C)C1N=CC(C)O1 (single isomer, unassigned) [2-(1-methylpropyl)-5-methyl-3-oxazoline]
[1]; [5]
  2-methylbutanal (mol %) generated from precursor: 14.6 mol %
[1]; [6]
  2-methylbutanal (mol %) generated from precursor: 33.3 mol %
[1]; [7]
  2-methylbutanal (mol %) generated from precursor: 55.6 mol %
[1]; [8]
  2-methylbutanal (mol %) generated from precursor: 1.1 mol %

## CC(C)CC1N=CC(C)O1 (single isomer, unassigned) [2-(2-methylpropyl)-5-methyl-3-oxazoline isomer I, 2-(2-methylpropyl)-5-methyl-3-oxazoline]
[1]; [5]
  3-methylbutanal (mol %) generated from precursor: 72.7 mol %
[1]; 5 min, water 37° C.
  isomer I (unreacted) (mol %): 16.2 mol %
  isomer II (formed) (mol %): 5.1 mol %
[1]; 5 min after addition of water at 37° C.
  3-methylbutanal released / precursor converted to Strecker aldehyde: 73%
[1]; [6]
  3-methylbutanal (mol %) generated from precursor: 82.4 mol %
[1]; 15 min, water 37° C.
  isomer I (unreacted) (mol %): 8.4 mol %
  isomer II (formed) (mol %): 10.2 mol %
[1]; [7]
  3-methylbutanal (mol %) generated from precursor: 91.1 mol %
[1]; 30 min, water 37° C.
  isomer I (unreacted) (mol %): 2.9 mol %
  isomer II (formed) (mol %): 4.3 mol %
[1]; [9]
  3-methylbutanal (mol %) generated from precursor: 0.3 mol %
[1]; [10]
  isomer I (unreacted) (mol %): 98.1 mol %
  isomer II (formed) (mol %): 1.9 mol %
[1]; after 5 min, water 37° C.
  corresponding isomer II formed from purified isomer I: 5%
[1]; after 15 min, water 37° C.
  3-methylbutanal released: > 80%
[1]; after 30 min, water 37° C.
  3-methylbutanal released: > 90% and 91%

## CC(C)CC1N=CC(C)O1 (single isomer, unassigned) [2-(2-methylpropyl)-5-methyl-3-oxazoline isomer II, 2-(2-methylpropyl)-5-methyl-3-oxazoline]
[1]; [5]
  3-methylbutanal (mol %) generated from precursor: 72.5 mol %
[1]; 5 min, water 37° C.
  isomer I (formed) (mol %): 3.0 mol %
  isomer II (unreacted) (mol %): 25.7 mol %
[1]; [6]
  3-methylbutanal (mol %) generated from precursor: 81.4 mol %
[1]; 15 min, water 37° C.
  isomer I (formed) (mol %): 3.7 mol %
  isomer II (unreacted) (mol %): 16.7 mol %
[1]; [7]
  3-methylbutanal (mol %) generated from precursor: 92.2 mol %
[1]; 30 min, water 37° C.
  isomer I (formed) (mol %): 2.2 mol %
  isomer II (unreacted) (mol %): 7.2 mol %
[1]; [9]
  3-methylbutanal (mol %) generated from precursor: 0.4 mol %
[1]; [10]
  isomer I (formed) (mol %): 1.7 mol %
  isomer II (unreacted) (mol %): 98.3 mol %

## Cc1ccccc1C1N=CC(C)O1 (single isomer, unassigned; isomer i) [2-methylphenyl-5-methyl-3-oxazoline isomer I, 2-methylphenyl-5-methyl-3-oxazoline]
[1]; [5]
  phenylacetaldehyde (mol %) generated from precursor: 16.6 mol %
[1]; 5 min, water 37° C.
  isomer I (unreacted) (mol %): 31.8 mol %
  isomer II (formed) (mol %): 7.1 mol %
[1]; [6]
  phenylacetaldehyde (mol %) generated from precursor: 23.1 mol %
[1]; 15 min, water 37° C.
  isomer I (unreacted) (mol %): 31.1 mol %
  isomer II (formed) (mol %): 6.3 mol %
[1]; [7]
  phenylacetaldehyde (mol %) generated from precursor: 42.5 mol %
[1]; 30 min, water 37° C.
  isomer I (unreacted) (mol %): 22.3 mol %
  isomer II (formed) (mol %): 5.8 mol %
[1]; [8]
  phenylacetaldehyde (mol %) generated from precursor: 0.2 mol %
[1]; [10]
  isomer I (unreacted) (mol %): 98.0 mol %
  isomer II (formed) (mol %): 2.0 mol %
[1]; after 5 min, water 37° C.
  corresponding isomer II formed from purified isomer I: 7%
  phenylacetaldehyde liberated: 17%
[1]; after 15 min, water 37° C.
  phenylacetaldehyde liberated: > 20%
[1]; after 30 min, water 37° C.
  phenylacetaldehyde liberated: > 40% and 43%

## Cc1ccccc1C1N=CC(C)O1 (single isomer, unassigned; isomer ii) [2-methylphenyl-5-methyl-3-oxazoline isomer II, 2-methylphenyl-5-methyl-3-oxazoline]
[1]; [5]
  phenylacetaldehyde (mol %) generated from precursor: 17.2 mol %
[1]; 5 min, stirred in water at 37° C., listed as 2-methylphenyl-5-methyl-2-oxazoline isomer II
  phenylacetaldehyde (mol %) generated from precursor: 17.2 mol %
[1]; 5 min, water 37° C.
  isomer I (formed) (mol %): 9.0 mol %
  isomer II (unreacted) (mol %): 28.6 mol %
[1]; [6]
  phenylacetaldehyde (mol %) generated from precursor: 32.2 mol %
[1]; 15 min, stirred in water at 37° C., listed as 2-methylphenyl-5-methyl-2-oxazoline isomer II
  phenylacetaldehyde (mol %) generated from precursor: 32.2 mol %
[1]; 15 min, water 37° C.
  isomer I (formed) (mol %): 5.4 mol %
  isomer II (unreacted) (mol %): 26.0 mol %
[1]; [7]
  phenylacetaldehyde (mol %) generated from precursor: 46.5 mol %
[1]; 30 min, stirred in water at 37° C., listed as 2-methylphenyl-5-methyl-2-oxazoline isomer II
  phenylacetaldehyde (mol %) generated from precursor: 46.5 mol %
[1]; 30 min, water 37° C.
  isomer I (formed) (mol %): 2.7 mol %
  isomer II (unreacted) (mol %): 20.2 mol %
[1]; [8]
  phenylacetaldehyde (mol %) generated from precursor: 0.3 mol %
[1]; Control experiment without addition of water, listed as 2-methylphenyl-5-methyl-2-oxazoline isomer II
  phenylacetaldehyde (mol %) generated from precursor: 0.3 mol %
[1]; [10]
  isomer I (formed) (mol %): 1.8 mol %
  isomer II (unreacted) (mol %): 98.2 mol %

## CCC(C)C=O (centres unmarked) [2-methylbutanal]
[2]
  release from spiked chocolate after addition of water or saliva (PTR-MS): clearly increased
[3]
  Concentration in “release sample” (after addition of saliva): 3009 μg/kg of chocolate
  Concentration in blank sample (prior addition of saliva): 354 μg/kg of chocolate

## Cc1ccccc1C1N=CC(C)O1 (centres unmarked) [2-methylphenyl-5-methyl-3-oxazoline]
[4]; pH 5, Control without addition of buffer solution
  phenylacetaldehyde (mol %) generated from precursor: 0.4 mol %
[4]; pH 5 buffer, 5 min, 37° C.
  phenylacetaldehyde (mol %) generated from precursor: 41.2 mol %
[4]; pH 5 buffer, 15 min, 37° C.
  phenylacetaldehyde (mol %) generated from precursor: 72.1 mol %
[4]; pH 5 buffer, 30 min, 37° C.
  phenylacetaldehyde (mol %) generated from precursor: 87.7 mol %
[4]; pH 7, Control without addition of buffer solution
  phenylacetaldehyde (mol %) generated from precursor: 0.3 mol %
[4]; pH 7 buffer, 5 min, 37° C.
  phenylacetaldehyde (mol %) generated from precursor: 7.7 mol %
[4]; pH 7 buffer, 15 min, 37° C.
  phenylacetaldehyde (mol %) generated from precursor: 18.0 mol %
[4]; pH 7 buffer, 30 min, 37° C.
  phenylacetaldehyde (mol %) generated from precursor: 30.2 mol %
[4]; pH 9, Control without addition of buffer solution
  phenylacetaldehyde (mol %) generated from precursor: 0.3 mol %
[4]; pH 9 buffer, 5 min, 37° C.
  phenylacetaldehyde (mol %) generated from precursor: 4.9 mol %
[4]; pH 9 buffer, 15 min, 37° C.
  phenylacetaldehyde (mol %) generated from precursor: 7.1 mol %
[4]; pH 9 buffer, 30 min, 37° C.
  phenylacetaldehyde (mol %) generated from precursor: 14.3 mol %

## CC(C)CC=O [3-methylbutanal]
[2]
  release from spiked chocolate after addition of water or saliva (PTR-MS): clearly increased
[3]
  Concentration in “release sample” (after addition of saliva): 4456 μg/kg of chocolate
  Concentration in blank sample (prior addition of saliva): 502 μg/kg of chocolate

## CC(C)C=O [methylpropanal]
[2]
  release from spiked chocolate after addition of water or saliva (PTR-MS): clearly increased
[3]
  Concentration in “release sample” (after addition of saliva): 1103 μg/kg of chocolate
  Concentration in blank sample (prior addition of saliva): 25.4 μg/kg of chocolate

## O=CCc1ccccc1 [phenylacetaldehyde]
[2]
  release from spiked chocolate after addition of water or saliva (PTR-MS): clearly increased
[3]
  Concentration in “release sample” (after addition of saliva): < LoD (due to headspace
  Concentration in blank sample (prior addition of saliva): < LoD (due to headspace
